The values below are quoted from earlier work in patent US10329321B2, “Site-selective functionalization of proteins using traceless affinity labels” (priority 2016, dated 2019).

The conditions of series [1]: imidazole ring of histidine or its fluorinated replacement.
Series [2] deals with nucleotide binding pocket (NBP) in immunoglobulin Fab arms. The following applies: binding affinity dependent on the antibody.

`Fc1ncc[nH]1` [2-fluoro-imidazole]: in series [1], the pKa is roughly 1.22. Regarding `Fc1c[nH]cn1` [4-fluoro-imidazole], the pKa in series [1] is recorded as roughly 1.76.

In the case of `N[C@@H](Cc1c[nH]cn1)C(=O)O` [histidine], the pKa in series [1] is roughly 6. Consider `O=C(O)CCCc1c[nH]c2ccccc12` [indole-3-butryic acid, 4-(3-indolyl)butyric acid], for which the Kd in series [2] was 1 to 8 µM.

The term pKa denotes the negative logarithm of the acid dissociation constant. What is called Kd is the free concentration of one partner at which half of the binding sites on the other are occupied at equilibrium, for simple one-to-one binding.
